# From publication PMC7162492, “Pharmacological and pharmacokinetic profile of the novel ocular hypotensive prodrug CKLP1 in Dutch-belted pigmented rabbits” (PLoS ONE, 2020)
# Entries after “also recorded” stand apart in the source; their conditions may differ.
# How the values were obtained:
# [1] = Plasma pharmacokinetics after single intravenous injection of CKLP1 (LC-MS/MS); type: in vivo, Dutch-belted pigmented rabbits; settings: rabbit, intravenous 0.25 mg/kg CKLP1
# Method: (§1) LC-MS/MS analysis of all fluids were performed using a Waters (Milford, MA) Acquity UPLC BEH C18 column (1.7 μm, 2.1 x 50 mm) with an Agilent EC-C18 pre-column (2.7 μm, 2.1 x 5 mm) and a gradient elution program containing ultra-pure water and acetonitrile with 2.5 mM ammonium formate, at a flow rate of 0.2 ml/min. Flavopiridol was used as an internal standard. The column and auto-sampler temperatures were maintained at 40°C and 4°C, respectively. Source parameters were capillary voltage, 2.6 kV; source temperature, 150°C; desolvation temperature, 500°C; cone gas flow, 150 L/h; and desolvation gas flow, 800 L/h. The cone voltages and collision energies for CKLP1, levcromakalim and flavopiridol were determined by MassLynx-Intellistart software, v4.1, and were 32, 34 and 72 V (cone) and 20, 14 and 30 eV (collision), respectively. The retention times were 4.5 minutes for CKLP1, 5.9 minutes for levcromakalim and 5.7 minutes for flavopiridol.
# (§2) To validate accurate measurement of CKLP1 and levcromakalim, known concentrations of CKLP1 (5, 10, 25, 50, 100, 250, 500 ng/ml) and levcromakalim (1, 5, 10, 25, 50, 100, 250 ng/ml) were added to human plasma (obtained from the Mayo Clinic Division of Transfusion Medicine under an Institutional Review Board approved protocol) to make calibration curves. Quality control was determined for each run by using known quantities of CKLP1 and levcromakalim to verify that the instrument recorded values consistent with the established standard curve. The effect of carryover was evaluated by injecting blank samples before and after running the standard samples for calibration curves. Unknown samples with signal to noise ratios >10 were recorded as acceptable concentrations. Samples with signal to noise ratios <10 were reported as not detectable (ND). Controls consisted of a double blank (without analytes and internal standard) and a single blank (only internal standard). The linearity of the calibration curves was determined by plotting the ratios of analytes to internal standard peak areas. The curve was fitted by least squares regression with a 1/x weighting for both CKLP1 and levcromakalim. Data was collected from 3–6.4 minutes for CKLP1 and 4–8 minutes for both levcromakalim and flavopiridol. Waters MassLynx Intellistart software v4.1 was used for analysis.
# (§3) All experiments with animals were pre-approved by the Institutional Animal Care and Use Committee of the Mayo Clinic, Rochester, MN and adhered to the recommendations in the Guide for the Care and use of Laboratory Animals of the National Institutes of Health, and the tenets of the ARVO Statement for the Use of Animals in Vision Research. Female Dutch-belted pigmented rabbits (age 7 months) were obtained from Covance Research Products, Inc. (Denver, PA). Rabbits were housed in pairs and kept in a climate controlled room with 12 h light and dark cycles. Animals had unrestrained access to water and standard rabbit food pellets at all times. Upon receipt, animals were acclimated for at least 5 days before initiation of the experiment. IOP was measured with a handheld rebound tonometer (Icare Tonovet, Colonial Medical Supply, Franconia, NH, USA) in conscious and minimally restrained, non-anesthetized rabbits as previously described. Briefly, daily IOP was calculated from the average of 3 independent IOP measurements at 3 different time points each day. These time points corresponded to 1 h, 4 h and 23 h post treatment on any given day. Rabbits that needed to be handled for IOP were subjected to sham IOP measurements for two days prior to initiation of experiment. Rabbits (n = 3) were injected intravenously through the right ear vein with CKLP1 as a bolus dose equal to 0.25 mg/kg body weight. Additional rabbits were treated topically through instillation of 50 μl eye drops of a 10 mM (4.1 mg/ml) solution of CKLP1 in sterile PBS. […]
# [2] = Plasma pharmacokinetics after topical eye drops of CKLP1, days 1, 4 and 8 (LC-MS/MS); type: in vivo, Dutch-belted pigmented rabbits; settings: for AUClast / Clast / Cmax / Tlast / Tmax / half-life: plasma
# Method: as §1, §2, §3
# [3] = tested on: Dutch-belted pigmented rabbits; assay: Histology of tissues at necropsy after 90 days of topical CKLP1; type: in vivo; settings: topical CKLP1 once daily, masked veterinary pathologist
# Source text: as §3, with “day.” for “day. These time points corresponded to 1 h, 4 h and 23 h post treatment on any given day. Rabbits that needed to be handled for IOP were subjected to sham IOP measurements for two days prior to initiation of experiment. Rabbits (n = 3) were injected intravenously through the right ear vein with CKLP1 as a bolus dose equal to 0.25 mg/kg body weight. Additional rabbits were treated topically through instillation of 50 μl eye drops of a 10 mM (4.1 mg/ml) solution of CKLP1 in sterile PBS.”
# To assess cell and tissue morphology following CKLP1 treatment for 90 days, necropsy was performed on all 6 treated rabbits. Representative hematoxylin and eosin stained sections from 34 tissues were isolated, processed and assessed in a masked manner by a certified veterinary pathologist. […]
# [4] = eye drops 10 mM CKLP1 both eyes once daily, Day 4
# [5] = eye drops 10 mM CKLP1 both eyes once daily, Day 8
# [6] = eye drops 10 mM CKLP1 both eyes, Day 1
substance,measurement,setting,value
"sodium [CKLP1, sodium [(3S,4R)-6-cyano-2,2-dimethyl-4-(2-oxopyrrolidin-1-yl)-chroman-3-yl phosphate]]",AUClast,[1],2164.0 ± 482.5 ng·h/mL
same,Clast,[1],34.9 ± 42.4 ng/mL
same,Cmax,[1],1968.5 ± 831.0 ng/mL
same,Tlast,[1],5.6 ± 1.8 h
same,Tmax,[1],19.8 ± 23.0 min
same,half-life,[1],61.8 ± 55.2 min
same,AUClast,[2]; [4],360 ± 82 ng·h/mL
same,Clast,[2]; [4],4.2 ± 2.6 ng/mL
same,Cmax,[2]; [4],30.6 ± 7.3 ng/mL
same,Tlast,[2]; [4],24.0 ± 0.0 h
same,Tmax,[2]; [4],325.0 ± 268.5 min
same,half-life,[2]; [4],6.7 ± 2.0 min
same,AUClast,[2]; [5],341 ± 45.2 ng·h/mL
same,Clast,[2]; [5],4.2 ± 1.5 ng/mL
same,Cmax,[2]; [5],36.3 ± 13.3 ng/mL
same,Tlast,[2]; [5],24.0 ± 0.0 h
same,Tmax,[2]; [5],20.0 ± 8.7 min
same,half-life,[2]; [5],7.7 ± 3.0 min
same,AUClast,[2]; [6],271 ± 55 ng·h/mL
same,Clast,[2]; [6],5.1 ± 1.1 ng/mL
same,Cmax,[2]; [6],20.0 ± 6.3 ng/mL
same,Tlast,[2]; [6],24.0 ± 0.0 h
same,Tmax,[2]; [6],360.0 ± 207.9 min
same,half-life,[2]; [6],10.7 ± 4.1 min
same,Amount in plasma after topical CKLP1,[2]; topical 10 mM CKLP1 in the eye,trace amounts
same,Histological changes in tissues,[3],No observable histological changes; also recorded: did not show any observable histological changes; also recorded: No observable differences in histology
